This note sets out measurements from PMC9196953 (Drug development research, 1999).

Test [1] concerns the target T1, human A1 receptors (Homo sapiens, UniProt P30542).
T1 construct: expressed in transfected cells; host or cells: HEK-293
T1 sequence (P30542 1-326): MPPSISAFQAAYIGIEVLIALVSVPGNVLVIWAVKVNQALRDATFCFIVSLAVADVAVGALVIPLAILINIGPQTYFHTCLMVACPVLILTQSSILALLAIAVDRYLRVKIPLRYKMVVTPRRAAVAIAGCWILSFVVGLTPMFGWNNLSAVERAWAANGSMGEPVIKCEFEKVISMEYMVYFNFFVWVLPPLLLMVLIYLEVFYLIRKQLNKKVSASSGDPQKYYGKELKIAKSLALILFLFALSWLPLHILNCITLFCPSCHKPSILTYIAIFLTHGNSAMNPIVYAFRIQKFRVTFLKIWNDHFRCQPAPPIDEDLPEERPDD
In words: Binding at recombinant human A1 receptors expressed in HEK-293 cells vs [3H]CPX. Particulars: recombinant human A1 in HEK-293 cells. The method, then:
(§1) All nonradioactive compounds were initially dissolved in DMSO and diluted with buffer to the final concentration, where the amount of DMSO never exceeded 2%. Incubations were terminated by rapid filtration over Whatman GF/B filters using a Brandell cell harvester. The tubes were rinsed three times with 3 mL buffer each.
(§2) At least six different concentrations of competitor, spanning 3 orders of magnitude adjusted appropriately for the IC50 value of each compound, were used. IC50 values, calculated with the nonlinear regression method implemented in Graph-Pad Prism (San Diego, CA) were converted to apparent Ki values as described by [Linden [1982]]. Hill coefficients of the tested compounds were in the range of 0.8–1.1.
(§3) At A2B receptors, two radioligand binding assays (Table 1) were used. Ki values of xanthine derivatives were determined in displacement of binding of the non-selective radioligands […], 8 (4-(2-[7-amino-2-{furyl}{1,2,4}triazolo{2,3-a}{1,3,5}tr nzyl)-8-phenyloxyacetate-1-propyl-xanthine), at human A2B receptors expressed in HEK-293 cell membranes [[Linden and Jacobson, 1998]]. In order to evaluate selectivity, selected derivatives were subjected to standard binding assays at A1, A2A, and A3 receptors. The initial screening utilized rat brain A1/A2A receptors (with radioligands [^3H]R-PIA and [^3H]CGS-21680), and selected compounds were examined at the recombinant human subtypes (Table 1), using [^3H]CPX ([^3H]8-cyclopentyl-1,3-dipropylxanthine) and ^125I-ZM 241385, ^125I-4-(2-[7-amino-2-[2-furyl][1,2,4]triazolo[2,3-a][1,3,5]triazin-5-yl-amino]ethyl)phenol) [[Palmer et al., 1996]].

Test [2] concerns the target T2, human A2A receptors (Homo sapiens, UniProt P29274).
T2 construct: expressed in transfected cells; host or cells: HEK-293
In words: Binding at recombinant human A2A receptors expressed in HEK-293 cells vs [125I]ZM241385. Particulars: recombinant human A2A in HEK-293 cells, read-out: Ki A2A (h) (converted). The method, then: as §1, §2, §3

Test [3] addresses T3, human A2B receptors (Homo sapiens, UniProt P29275).
T3 construct: expressed in transfected cells; host or cells: HEK-293
T3 sequence (P29275 1-332): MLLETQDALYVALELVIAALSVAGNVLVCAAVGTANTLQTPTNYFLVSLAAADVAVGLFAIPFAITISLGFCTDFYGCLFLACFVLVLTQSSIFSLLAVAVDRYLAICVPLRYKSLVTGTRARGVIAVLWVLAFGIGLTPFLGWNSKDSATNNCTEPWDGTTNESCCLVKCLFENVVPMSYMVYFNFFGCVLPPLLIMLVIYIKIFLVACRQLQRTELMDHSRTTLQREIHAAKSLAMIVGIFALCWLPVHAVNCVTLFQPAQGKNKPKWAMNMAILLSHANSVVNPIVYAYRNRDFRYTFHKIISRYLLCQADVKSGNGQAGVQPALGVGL
In words: Binding at human A2B receptors expressed in HEK-293 cells vs [125I]-ABOPX. Particulars: read-out: Ki hA2B (converted). The method, then:
The human A2B receptor cDNA was subcloned into the expression plasmid pDoubleTrouble [[Robeva et al., 1996a]]. The plasmid was amplified in competent JM109 cells and plasmid DNA isolated using Wizard Megaprep columns (Promega Corp., Madison, WI).
Transfected HEK cells were grown under 5% CO2/[…] humidified atmosphere at a temperature of 37°C. Colonies were selected by growth of cells in 0.6 mg/mL G418. Transfected cells were maintained in DMEM supplemented with Hams F12 nutrient mixture (1/1), 10% newborn calf serum, 2 mM glutamine, and containing 50 IU/mL penicillin, 50 μg/mL streptomycin, and 0.2 mg/mL Geneticin (G418, Boehringer Mannheim, Indianapolis, IN). Cells were cultured in 10 cm diameter round plates and subcultured when grown confluent (approximately after 72 h).
Confluent monolayers of HEK-A2B cells were washed with PBS followed by ice-cold Buffer A (10 mM HEPES, 10 mM EDTA, pH 7.4) with protease inhibitors ([…] benzamidine, […], and […] of each aprotinin, pepstatin, and leupeptin). The cells were homogenized in a Polytron (Brinkmann) for 20 sec, centrifuged at 30,000g, and the pellets washed twice with buffer HE (10 mM HEPES, 1 mM EDTA, pH 7.4 with protease inhibitors). The final pellet was resuspended in buffer HE, supplemented with 10% sucrose and frozen in aliquots at −80°C. For binding assays, membranes were thawed and diluted 5–10-fold with HE to a final protein concentration of approximately 1 mg/mL. To determine protein concentrations, membranes, and bovine serum albumin standards were dissolved in 0.2% NaOH/0.01% SDS and protein determined using fluorescamine fluorescence [[Stowell et al., 1978]]. […] To prepare [^125I-]ABOPX, […] of 1 mM ABOPX in methanol/1 M NaOH (20:1) was added to […] of 100 mM phosphate buffer, pH 7.3. One or 2 mCi of Na^125I was added, followed by […] of 1 mg/mL chloramine-T in water. After incubating for 20 min at room temperature, 50 mL of 10 mg/mL Na-metabisulfite in water was added the quench the reaction. The reaction products were applied to a C18 HPLC column using 4 mM phosphate, pH 6.0/methanol. After 5 min in 35% methanol, the methanol concentration was ramped to 100% over 15 min. Unreacted ABOPX eluted in 11–12 min; [^125I-]ABOPX eluted at 18–19 min in a yield of 50–60% of the initial ^125I. In equilibrium binding assays the ratio of [^127I/^125I-]ABOPX was 10–20/1. […] The incubation time was 3 h at 21°C. […] Competition experiments were carried out using 0.6 nM ^125I-ABOPX. Membranes were filtered on Whatman GF/C filters using a Brandell cell harvester (Gaithersburg, MD) and washed three times over 15–20 sec with ice-cold buffer (10 mM Tris, 1 mM MgCl2, pH 7.4). Bmax and KD values were calculated by Marquardt’s nonlinear least squares interpolation for single site binding models [[Marquardt, 1963]]. Ki values for different compounds were derived from IC50 values as described previously [[Linden, 1982]]. Data from replicate experiments are tabulated as means ± SEM.
as §3

T2 sequence (P29274 whole entry): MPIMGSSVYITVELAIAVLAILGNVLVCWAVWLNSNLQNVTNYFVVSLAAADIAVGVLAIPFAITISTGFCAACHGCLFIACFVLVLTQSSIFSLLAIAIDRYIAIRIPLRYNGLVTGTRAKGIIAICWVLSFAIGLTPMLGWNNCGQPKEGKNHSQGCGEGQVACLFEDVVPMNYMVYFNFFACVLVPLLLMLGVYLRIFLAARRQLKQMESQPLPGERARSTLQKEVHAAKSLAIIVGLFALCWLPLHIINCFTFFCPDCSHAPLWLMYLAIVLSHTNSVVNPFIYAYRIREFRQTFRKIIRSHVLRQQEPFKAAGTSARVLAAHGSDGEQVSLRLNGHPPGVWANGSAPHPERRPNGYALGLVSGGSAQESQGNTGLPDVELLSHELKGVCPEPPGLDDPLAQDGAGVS

With `CCCn1c(=O)c2[nH]c(-c3ccc(OCC(=O)OCC)cc3)nc2n(CCC)c1=O` [Compound 4b], the inhibition constant Ki in test [1] is 203 nM; in test [2], 342 nM; in test [3], 34.5 nM.
Regarding `CCCn1c(=O)c2[nH]c(-c3ccc(OCC(=O)NNC(C)=O)cc3)nc2n(CCC)c1=O` [Compound 4e, 8-[4-[(Carboxymethyl)oxy]phenyl]-1,3-di-(n-propyl)xanthine N-Acetylhydrazide], the Ki in test [1] is 125 nM; in test [2], 186 nM; in test [3], 33.8 nM.
Turning to `CCCn1c(=O)c2[nH]c(-c3ccc(OCC(=O)NNC(=O)CCC(=O)O)cc3)nc2n(CCC)c1=O` [Compound 9, 8-[4-[(Carboxymethyl)oxy]phenyl]-1,3-di-(n-propyl)xanthine N-[(3-Carboxy)-n-propionyl]hydrazide], the Ki in test [1] is 219 nM; in test [2] it was 795 nM; in test [3] it was 97.8 nM.
Turning to `CCCn1c(=O)c2[nH]c(-c3ccc(OCC(=O)NN4C(=O)C(C)=C(C)C4=O)cc3)nc2n(CCC)c1=O` [Compound 14, 8-[4-[(Carboxymethyl)oxy]phenyl]-1,3-di-(n-propyl)xanthine N,N-[(1,2-Dimethyl)maleyl]hydrazide], the figures for the Ki in test [1], in test [2] and in test [3] were 3030 nM, 1970 nM and 33.8 nM, respectively.
Take `CCCn1c(=O)c2[nH]c(-c3ccc(OCC(=O)NN4C(=O)c5ccccc5C4=O)cc3)nc2n(CCC)c1=O` [Compound 21, 8-[4-[(Carboxymethyl)oxy]phenyl]-1,3-di-(n-propyl)xanthine N,N-Phthaloylhydrazide]: the results for the Ki in test [1], in test [2] and in test [3] were 210 nM, 359 nM and 46.4 nM, respectively.
In the case of `CCCn1c(=O)[nH]c(=O)c2[nH]c(-c3ccc(OCC(=O)NN4C(=O)C(C)=C(C)C4=O)cc3)nc21` [Compound 15, 8-[4-[(Carboxymethyl)oxy]phenyl]-1H-3-(n-propyl)xanthine N,N-[(1,2-Dimethyl)maleyl]hydrazide], the Ki in test [1] was 8080 nM; in test [2], 5480 nM; in test [3] it was 1900 nM.

As a reminder, the Ki is the equilibrium dissociation constant of an inhibitor or competing ligand from its target.
